These results are taken from patent US11466054B2, “Inhibitors of metastasis” (BIOMARCK PHARMACEUTICALS LTD., priority 2013, dated 2022).

Where no end group is shown, it is not given here.

For assay [1], the system named is Human adenocarcinoma cells (PC-9). The assay can be described thus: Orthotopic lung cancer implantation model in SCID mice, aerosol from day 4 or day 15 (Example 5). It is filed as in vivo. Conditions: for total number of tumor nodules found in all tissues: FIG. 14. The protocol: In this study, inhibition of lung cancer metastasis by BIO-11006 was investigated in an orthotopic lung cancer implantation model in SCID mice. Human adenocarcinoma cells (PC-9) (1-2×10^5) were suspended in 40 μL of PBS containing 0.5 mg/mL of Matrigel™ (BD Bioscience) and injected into the left lung of SCID mice (n=3) using a 29 gauge needle. BIO-11006 was administered starting either 4 days or 15 days post cancer cell inoculation by aerosol using 100 μM solution in PBS by Nebulizer Delivery System (Aeroneb Lab) over 30 min once daily for 25 days post cancer cell inoculation. At end of the experiment, the mice were sacrificed and lungs, heart, and diaphragm tissues collected and number of tumor nodules in each tissue measured. The results of this experiment are presented graphically in FIGS. 13 and 14. […] When the treatment was initiated at 15 days post inoculation of cancer cells, the inhibition of tumor metastasis was about 50% in the lungs, heart, and diaphragm. FIG. 14 depicts the total number of tumor nodules found in all tissues when peptide treatment was started at 15 days post cancer cell inoculation or 4 days post cancer cell inoculation.

Assay [2] shares this test system. The assay can be described thus: Orthotopic lung cancer implantation model in SCID mice, i.p. versus inhalation (Example 4). It is filed as in vivo. Here is the method:
In this study, inhibition of lung cancer metastasis by peptide BIO-11006 in an orthotopic lung cancer implantation model in SCID mice assessed. Human adenocarcinoma cells (PC-9) (1-2×10^5) were suspended in 40 μL of PBS, pH 7.4 containing 0.5 mg/mL of Matrigel™ (BD Bioscience) and injected into the left lung of SCID mice (n=3) using a syringe with 29 gauge needle. BIO-11006 (100 μM, in PBS) was administered either (a) by i.p. injection (50 μL) once daily for 22 days starting at 3 days post cancer cell inoculation or (b) by aerosol inhalation using a Nebulizer Delivery System (Aeroneb Lab) over 30 min once daily for 22 days starting at 3 days post cancer cell inoculation. […] Both i.p. and aerosol administration of BIO-11006 reduced cancer cell metastasis by more than 50% in the right lung and heart, and 100% in the diaphragm. Thus, both routes of administration had significant inhibitory effects on cancer cell metastasis.

The subject of the next assay is A549 cells. The assay can be described thus: Anti-metastatic efficacy in SCID mice given A549 cells via the tail vein. It is filed as in vivo. Conditions: Day 53; for No. of metastatic nodules in lungs Mean ± SEM: aerosol 100 μM every other day for 7 weeks. The protocol:
Female NOD.CB17-Prkdc^scid/NCrHsd, Mus musculus mice (Harlan, The Netherlands), housed in individually ventilated cages, were randomized into six groups of eight mice each. A549 cells (2.5×10^6) were injected into the mice via the tail vein. The control group received aerosolized vehicle PBS; while the groups 2 and 3 received the aerosolized test compound BIO-11006 either from −1 day before the cancer cells injection (group 2) or from +3 days after the cancer cell injection (group 3) on every other day for 7 weeks via nebulizer (Aeroneb Lab). Groups 4 and 5 received the aerosolized test compound MANS peptide either from −1 day before the cancer cell line injection (group 4) or from +3 days after the cell line injection (group 5) on every other day for 7 weeks via a nebulizer (Aeroneb Lab). For aerosol delivery, solution of each test compound (100 μM) was prepared in PBS, pH 7.0. For each treatment, 5 mL of test compound solution was aerosolized over 30 minutes into a chamber containing four mice at a time. The mice were monitored for body weight every other day for 7 weeks.
One group of mice (n=7) served as normal control. These were untreated naïve mice used to monitor the health status of mice during the study period. All animals from all groups were sacrificed on Day 53. FIG. 15 compares number of metastatic nodules in lungs after respective administration of BIO-11006 and MANS peptide on Day 53 following A549 cell injection. […] There were few focal tumor nodules in ⅞ of mice treated with BIO-11006 peptide starting at either Day −1 or Day +3 relative to A549 cell injection.

The next assay deals with A549. The assay can be described thus: Transwell migration assay, A549 cells. In kind it is cell-based, human. Conditions: 12 hr. The protocol: The human adenocarcinoma-derived alveolar epithelial cell line A549 (an invasive cell line) was obtained from the American Type Culture Collection (ATCC) and was cultured in RPMI-1640 supplemented with 10% fetal bovine serum and 100 U/ml penicillin/streptomycin, in 75 cm^2 tissue culture flasks. The cells reached confluence by the third day of culture at 37° C. in an atmosphere of 95% air and 5% CO2 and were maintained by serial passage.
The test peptides (MANS, RNS, BIO-11006, BIO-11000, BIO-11002, BIO-91200, and BIO-10901) were dissolved in PBS at a pH of 7.0; slow vortex mixing for about two hours aided solubility.
Transwell plates (24-well, […]; Costar, Cambridge, Mass., USA) were used to conduct the migration assay. The lower chambers of the transwell plates were filled with 600 μl of basal medium containing 10% FBS. The cells (1×10^5) were suspended in 100 μl of basal medium containing 1% BSA and added to the upper chamber, and the plates incubated at 37° C. with 5% CO2 for 12 hr in PBS (control), or the indicated test peptides at 10, 25 or 50 μM. The cells on the upper surface of the filters were removed using cotton swabs. The cells that migrated to the lower surface of the filters were washed, fixed, and stained with hematoxylin and counted under the microscope. The percent change in migration is determined by counting the number of cells that migrated to the lower surface of the filters. At least four separate microscopic fields are counted per membrane, with a total of three replicate experiments at each concentration. The statistics software “Prizm” was used for data analysis.

The mark [3] stands for this setting: aerosol 100 μM once daily, started 4 days post inoculation, FIG. 13.
Setting [4] is: aerosol inhalation 100 μM over 30 min once daily for 22 days from 3 days post inoculation.
[5] abbreviates: i.p. injection 50 μL of 100 μM once daily for 22 days from 3 days post inoculation.

With “N-acetyl-GAQFSKTAAK (Ac-GAQFSKTAAK; listed as Homo sapiens) [BIO-11006]”, the “inhibition of tumor metastasis in the lungs, heart, and diaphragm” value in assay [1] (aerosol 100 μM once daily, initiated 15 days post inoculation, FIG. 13) was “about 50%”. In assay [1] (setting [3]), the “inhibition of tumor metastasis in the left lung, heart, and diaphragm” value is given as 60-90%; the “inhibition of tumor metastasis in the right lung” value was determined as 100%. For the same substance, in assay [1] (treatment starting at 4 days post cancer cell inoculation), the “total number of tumor nodules found in all tissues” value is listed as “even further reduced tumor nodules”. Further, the “total number of tumor nodules found in all tissues” value in assay [1] (treatment starting at 15 days post cancer cell inoculation) is recorded as “reduced tumor nodules”. Moreover, in assay [2] (setting [4]), the “reduction of cancer cell metastasis in the diaphragm” value turned out to be 100%; the “reduction of cancer cell metastasis in the right lung and heart” value is “more than 50%”. In assay [2] (setting [5]), the “reduction of cancer cell metastasis in the diaphragm” value turned out to be 100%; the “reduction of cancer cell metastasis in the right lung and heart” value is “more than 50%”. Moreover, in the assay with A549 cells (+3 Day treatment group), the “animals with few focal tumor nodules” value is “Few focal tumor nodules in 7/8”, the distant metastasis result was “No distant metastasis” and the “No. of metastatic nodules in lungs Mean ± SEM” value stood at 21 ± 6. Also, in the assay with A549 cells (−1 Day treatment group), the “animals with few focal tumor nodules” value is “Few focal tumor nodules in 7/8”, the distant metastasis result is “No distant metastasis” and the “No. of metastatic nodules in lungs Mean ± SEM” value came to 34 ± 14. Further, the “cell numbers in comparison to control, RNS peptide and MANS peptide” value in the assay on A549 (A549, 25 μm, FIG. 11) was “significantly reduced cell numbers”. Further, in the assay with A549 (A549, 50 μm), the “migration index numbers relative to control and to RNS peptide” value is recorded as “increased migration index numbers”. Moreover, the “migrated cell numbers relative to control and to RNS peptide” value in the assay on A549 (A549, 50 μm, FIG. 11) was “decreased migrated cell numbers”.
